Biological target: T1, Human HM74A (Homo sapiens, UniProt Q8TDS4)
T1 construct: expressed in transfected cells; P2 membrane fractions
Assay: [35S]-GTPγS binding assay on HM74A membranes (10 μl and 50 μl formats)
Assay type: biochemical
Conditions: 10 μl and/or 50 μl assay, in which they were tested; +/−0.3 log unit; read-out: pEC50 in the [35S]-GTPγS binding assays (converted)
Method: For transient transfections, HEK293T cells (HEK293 cells stably expressing the SV40 large T-antigen) were maintained in DMEM containing 10% foetal calf serum and 2 mM glutamine. Cells were seeded in 90 mm culture dishes and grown to 60-80% confluence (18-24 h) prior to transfection. Human HM74A (GenBank™ accession number AY148884) was subcloned in to a mammalian expression vector (pcDNA3; Invitrogen) and transfected using Lipofectamine reagent. For transfection, 9 μg of DNA was mixed with 30 μl Lipofectamine in 0.6 ml of Opti-MEM (Life Technologies Inc.) and was incubated at room temperature for 30 min prior to the addition of 1.6 ml of Opti-MEM. Cells were exposed to the Lipofectamine/DNA mixture for 5 h and 6 ml of 20% (v/v) foetal calf serum in DMEM was then added. Cells were harvested 48 h after transfection. Pertussis toxin treatment was carried out by supplementation into media at 50 ngml^−1 for 16 h. All transient transfection studies involved co-transfection of receptor together with the Gi/o G protein, Go1α.
For generation of stable cell lines the above method was used to transfect CHO-K1 cells seeded in six well dishes grown to 30% confluence. These cells were maintained in DMEM F-12 HAM media containing 10% foetal calf serum and 2 mM glutamine. 48 h post-transfection the media was supplemented with 400 μg/ml Geneticin (G418, Gibco) for selection of antibiotic resistant cells. Clonal CHO-K1 cell lines stably expressing HM74A were confirmed by [^35S]-GTPγS binding measurements, following the addition of nicotinic acid.
P2 membrane preparation—Plasma membrane-containing P2 particulate fractions were prepared from cell pastes frozen at −80° C. after harvest. All procedures were carried out at 4° C. Cell pellets were resuspended in 1 ml of 10 mM Tris-HCl and 0.1 mM EDTA, pH 7.5 (buffer A) and by homogenisation for 20 s with a Ultra Turrax followed by passage (5 times) through a 25-gauge needle. Cell lysates were centrifuged at 1,000 g for 10 min in a microcentrifuge to pellet the nuclei and unbroken cells and P2 particulate fractions were recovered by microcentrifugation at 16,000 g for 30 min. P2 particulate fractions were resuspended in buffer A and stored at −80° C. until required.
[^35S]-GTPγS binding—assays were performed at room temperature in 384-well format based on methods described previously, (Wieland, T. and Jakobs, K. H. (1994) Methods Enzymol. 237, 3-13). Briefly, the dilution of standard or test compounds were prepared and added to a 384-well plate in a volume of 10 μl. Membranes (HM74A or HM74) were diluted in assay buffer (20 mM HEPES, 100 mM NaCl, 10 mM MgCl2, pH7.4) supplemented with saponin (60 μg/ml), Leadseeker WGA beads (Amersham; 250 μg/well) and 10 μM GDP, so that the 20 μl volume added to each well contains 5 μg of membranes. [^35S]-GTPγS (1170 Ci/mmol, Amersham) was diluted (1:1500) in assay buffer and 20 μl added to each well. Following the addition of the radioligand, the plates were sealed, pulse spun and incubated for 4 hours at room temperature. At the end of the incubation period the plates were read on a Leadseeker machine (VIEWLUX PLUS; Perkin-Elmer) to determine the levels of specific binding.
These assays were refined by reducing the final assay volume to 10 μl. For this 10 μl assay a revised protocol was used. This involved the use of only 100 nl of standard or test compound per well of a 384-well plate and 1.5 μg membrane and 100 μg Leadseeker WGA beads. For the low volume protocol, membrane, beads and [^35S]-GTPγS were mixed together and then 10 μl of this mix were dispensed to each well. Incubation and plate read were identical for the 10 μl and 50 μl assays.
All exemplified compounds were tested in one or both of the [^35S]-GTPγS binding assays described above (i.e. the 10 μl and 50 μl assays).
Data was analysed by curve fitting as carried out using a Four Parameter Logistical equation using the XC50 software package (max 2 points deleted from any one curve). […]

T1 sequence (Q8TDS4 whole entry): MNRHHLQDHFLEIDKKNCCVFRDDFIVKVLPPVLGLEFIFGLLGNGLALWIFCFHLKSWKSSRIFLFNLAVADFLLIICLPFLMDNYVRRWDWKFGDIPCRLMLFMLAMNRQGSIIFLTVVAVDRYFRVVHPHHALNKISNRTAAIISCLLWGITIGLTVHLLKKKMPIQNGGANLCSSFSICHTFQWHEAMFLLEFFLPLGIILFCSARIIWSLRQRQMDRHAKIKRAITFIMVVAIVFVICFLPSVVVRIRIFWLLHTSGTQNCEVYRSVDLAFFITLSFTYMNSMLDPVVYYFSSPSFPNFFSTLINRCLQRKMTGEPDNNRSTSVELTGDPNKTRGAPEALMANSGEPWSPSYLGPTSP

| SMILES | EC50 [µM] |
| --- | --- |
| O=c1c2[nH]c(Cl)nc2n(CCN2CCCCCC2)c(=O)n1CCCc1nc(Cc2ccc(F)cc2F)no1 [8-chloro-1-(3-{3-[(2,4-difluorophenyl)methyl]-1,2,4-oxadiazol-5-yl}propyl)-3-[2-(hexahydro-1H-azepin-1-yl)ethyl]-3,7-dihydro-1H-purine-2,6-dione] | > 50.1 |
| O=c1c2[nH]c(Cl)nc2n(CCN2CCCC2)c(=O)n1CCCc1nc(Cc2ccc(F)cc2F)no1 [8-chloro-1-(3-{3-[(2,4-difluorophenyl)methyl]-1,2,4-oxadiazol-5-yl}propyl)-3-[2-(1-pyrrolidinyl)ethyl]-3,7-dihydro-1H-purine-2,6-dione] | > 50.1 |
| CN(C)CCn1c(=O)n(CCCc2nc(Cc3ccc(F)cc3F)no2)c(=O)c2[nH]c(Cl)nc21 [8-chloro-1-(3-{3-[(2,4-difluorophenyl)methyl]-1,2,4-oxadiazol-5-yl}propyl)-3-[2-(dimethylamino)ethyl]-3,7-dihydro-1H-purine-2,6-dione] | > 50.1 |
| CN(C)CCCn1c(=O)n(CCCc2nc(Cc3ccc(F)cc3F)no2)c(=O)c2[nH]c(Cl)nc21 [8-chloro-1-(3-{3-[(2,4-difluorophenyl)methyl]-1,2,4-oxadiazol-5-yl}propyl)-3-[3-(dimethylamino)propyl]-3,7-dihydro-1H-purine-2,6-dione] | > 50.1 |
| CN(C)C(C)(C)Cn1c(=O)n(CCCc2nc(Cc3ccc(F)cc3F)no2)c(=O)c2[nH]c(Cl)nc21 [8-chloro-1-(3-{3-[(2,4-difluorophenyl)methyl]-1,2,4-oxadiazol-5-yl}propyl)-3-[2-(dimethylamino)-2-methylpropyl]-3,7-dihydro-1H-purine-2,6-dione] | > 50.1 |
| CN1CCN(CCCn2c(=O)n(CCCc3nc(Cc4ccc(F)cc4F)no3)c(=O)c3[nH]c(Cl)nc32)CC1 [8-chloro-1-(3-{3-[(2,4-difluorophenyl)methyl]-1,2,4-oxadiazol-5-yl}propyl)-3-[3-(4-methyl-1-piperazinyl)propyl]-3,7-dihydro-1H-purine-2,6-dione] | > 50.1 |
| O=c1c2[nH]c(Cl)nc2n(CCN2CCCCC2)c(=O)n1CCCc1nc(Cc2ccc(F)cc2F)no1 [8-chloro-1-(3-{3-[(2,4-difluorophenyl)methyl]-1,2,4-oxadiazol-5-yl}propyl)-3-[2-(1-piperidinyl)ethyl]-3,7-dihydro-1H-purine-2,6-dione] | > 50.1 |
